Source: patent publication US9062033B2, “Chemical compounds” (Rottapharm Biotech S.r.l., priority 2011, dated 2015)
Where two headings read alike, the source gives them in different places.

How the values were obtained:
human OX1 receptors = molecular target: T1, human OX1 receptors (Homo sapiens, UniProt O43613); experiment: Antagonistic activity against human OX1 receptor, [Ca2+]i fluorimetry (Fluo-4NW) in transfected CHO cells activated with orexin-A; type: cell-based; settings: for Kb: CHO cells transfected with human recombinant OX1, orexin-A 3 nM, pKb = co-logarithm of apparent dissociation constant, modified Cheng Prusoff; for pKb OX1: comparison table with compound of WO2011006960
T1 construct: expressed in transfected cells; host or cells: CHO cells
T1 sequence (O43613 1-425): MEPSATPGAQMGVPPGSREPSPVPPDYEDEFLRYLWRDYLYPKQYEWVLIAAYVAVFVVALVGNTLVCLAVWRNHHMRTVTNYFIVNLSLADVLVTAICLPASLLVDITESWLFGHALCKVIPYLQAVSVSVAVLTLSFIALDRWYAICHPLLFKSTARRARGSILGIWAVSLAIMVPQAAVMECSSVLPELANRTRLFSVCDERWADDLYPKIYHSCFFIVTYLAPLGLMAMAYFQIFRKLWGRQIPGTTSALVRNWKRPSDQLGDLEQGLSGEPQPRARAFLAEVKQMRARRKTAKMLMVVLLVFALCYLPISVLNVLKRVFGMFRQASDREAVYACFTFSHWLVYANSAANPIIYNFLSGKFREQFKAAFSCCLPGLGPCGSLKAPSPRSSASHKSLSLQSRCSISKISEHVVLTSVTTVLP
Protocol: (§1) In a typical experiment, the antagonistic activity against human OX1 and OX2 receptors is determined by using CHO e HEK-293 cells transfected with human recombinant OX1 and OX2 receptors respectively, seeded at density of 2 and 3×10^4 cells/well respectively in a 96 fluorimetry well plate. Thus the plate was loaded with the calcium dye (Fluo-4NW/probenecid in HBSS, Hepes 20 mM, pH 7.4; Invitrogen) at 37° C. for 60 min. Afterward the temperature was equilibrated at 22° C. for 15 min and the [Ca2+]i measured directly on the plate by using a fluorescent plate reader (CellLux Perkin Elmer).
(§2) Invention compounds were dissolved in DMSO, diluted in HBSS (DMSO, 0.3% final) and added to the wells. After 5 min CHO cells were activated with orexin-A, 3 nM while HEK-293 cells were activated with orexin-B, 10 nM.
(§3) The compounds, dissolved in DMSO and diluted in the medium (DMSO, 0.3% final), have been analysed in the 1 nM-1 μM concentration range (every concentration in duplicate). The antagonistic activity has been expressed as pKb (co-logarithm of the apparent dissociation constant calculated by using the modified Cheng Prusoff equation).
(§4) The results are expressed as percent of control specific […] response ((measured specific response/control specific agonist response)×100) obtained in the presence of the test compounds.
(§5) The IC50 values (concentration causing a half-maximal inhibition of the control specific agonist response) were determinated by non-linear regression analysis of the concentration curves generated with mean replicate values using hill equation curve fitting. The IC50 values are obtained by the arithmetical mean of at least two experiments. Compounds of the following example tested according to this example gave pKbs as follows: […]

human OX2 receptors = molecular target: T2, human OX2 receptors (Homo sapiens, UniProt O43614); experiment: Antagonistic activity against human OX2 receptor, [Ca2+]i fluorimetry (Fluo-4NW) in transfected HEK-293 cells activated with orexin-B; type: cell-based
T2 construct: expressed in transfected cells; host or cells: HEK-293 cells
T2 sequence (O43614 1-444): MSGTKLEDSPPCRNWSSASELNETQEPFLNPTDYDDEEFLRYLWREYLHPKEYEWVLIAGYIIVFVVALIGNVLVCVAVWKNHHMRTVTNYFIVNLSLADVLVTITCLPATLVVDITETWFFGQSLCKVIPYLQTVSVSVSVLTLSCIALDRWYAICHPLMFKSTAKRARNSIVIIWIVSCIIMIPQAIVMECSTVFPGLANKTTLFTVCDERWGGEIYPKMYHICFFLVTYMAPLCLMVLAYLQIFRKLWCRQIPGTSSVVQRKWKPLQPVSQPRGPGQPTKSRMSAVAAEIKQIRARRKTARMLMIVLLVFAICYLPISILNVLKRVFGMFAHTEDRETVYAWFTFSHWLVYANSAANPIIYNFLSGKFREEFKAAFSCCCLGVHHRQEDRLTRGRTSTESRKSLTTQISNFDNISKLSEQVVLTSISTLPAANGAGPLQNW
Protocol: as §1, §2, §3, §4, §5

[1] = HEK-293 cells transfected with human recombinant OX2, orexin-B 10 nM, pKb = co-logarithm of apparent dissociation constant, modified Cheng Prusoff
[2] = comparison table with compound of WO2011006960

Row | Kb (human OX1 receptors) | Kb (human OX2 receptors; [1]) | pKb OX1 (human OX1 receptors) | pKb OX2 (human OX2 receptors; [2]) | Kb (human OX2 receptors; comparison table with compound of WO2011006960, read-out: pKb OX2 (converted)) | SMILES
1 | 15.8 nM | 12.6 nM | – | – | – | Cc1ccc(-c2ncccn2)c(C(=O)N2CC3(CC3)C[C@H]2CNc2cc(C(F)(F)F)cc(C)n2)c1 [Compound 1m, (S)-(5-methyl-2-(pyrimidin-2-yl)phenyl)(6-(((6-methyl-4-(trifluoromethyl)pyridin-2-yl)amino)methyl)-5-azaspiro[2.4]heptan-5-yl)methanone]
2 | 50.1 nM | 15.8 nM | 7.3 | 7.8 | – | Cc1ccc(-c2ncccn2)c(C(=O)N2CC3(CC3)C[C@H]2CNc2cc(C(F)(F)F)ccn2)c1 [Compound 1n, (S)-(5-methyl-2-(pyrimidin-2-yl)phenyl)(6-(((4-(trifluoromethyl)pyridin-2-yl)amino)methyl)-5-azaspiro[2.4]heptan-5-yl)methanone]
3 | 2 nM | 251 nM | 8.7 | 6.6 | – | Cc1ccc(-c2ncccn2)c(C(=O)N2CC3(CC3)C[C@H]2CNc2ccc(C(F)(F)F)cn2)c1 [Compound 1o, (S)-(5-methyl-2-(pyrimidin-2-yl)phenyl)(6-(((5-(trifluoromethyl)pyridin-2-yl)amino)methyl)-5-azaspiro[2.4]heptan-5-yl)methanone]
4 | 79.4 nM | 20 nM | – | – | – | Cc1ccc(-c2ncccn2)c(C(=O)N2CC3(CC3)C[C@H]2CNc2nccc(C(F)(F)F)n2)c1 [Compound 1p, (S)-(5-methyl-2-(pyrimidin-2-yl)phenyl)(6-(((4-(trifluoromethyl)pyrimidin-2-yl)amino)methyl)-5-azaspiro[2.4]heptan-5-yl)methanone]
5 | 39.8 nM | 6.31 nM | – | – | – | O=C(c1cc(Cl)ccc1-c1ncccn1)N1CC2(CC2)C[C@H]1CNc1nccc(C(F)(F)F)n1 [Compound 1q]
6 | 6.31 nM | 10 nM | – | – | – | Cc1ccc(-c2ncccn2)c(C(=O)N2CC3(CC3)C[C@H]2CNc2cc(C(F)(F)F)c(Cl)cn2)c1 [Compound 1r, (S)-(6-(((5-chloro-4-(trifluoromethyl)pyridin-2-yl)amino)methyl)-5-azaspiro[2.4]heptan-5-yl)(5-methyl-2-(pyrimidin-2-yl)phenyl)methanone]
7 | 25.1 nM | 100 nM | – | – | – | Cc1ccc(-c2ncccn2)c(C(=O)N2CC3(CC3)C[C@H]2CNc2ncc(C(F)(F)F)cn2)c1 [Compound 1s, (S)-(5-methyl-2-(pyrimidin-2-yl)phenyl)(6-(((5-(trifluoromethyl)pyrimidin-2-yl)amino)methyl)-5-azaspiro[2.4]heptan-5-yl)methanone]
8 | 7.94 nM | 20 nM | – | – | – | O=C(c1cc(Cl)ccc1-c1ncccn1)N1CC2(CC2)C[C@H]1CNc1cc(C(F)(F)F)c(Cl)cn1 [Compound 1t, (S)-(5-chloro-2-(pyrimidin-2-yl)phenyl)(6-(((5-chloro-4-(trifluoromethyl)pyridin-2-yl)amino)methyl)-5-azaspiro[2.4]heptan-5-yl)methanone]
9 | 15.8 nM | 200 nM | – | – | – | O=C(c1cc(Cl)ccc1-c1ncccn1)N1CC2(CC2)C[C@H]1CNc1ncc(C(F)(F)F)cn1 [Compound 1u, (S)-(5-chloro-2-(pyrimidin-2-yl)phenyl)(6-(((5-(trifluoromethyl)pyrimidin-2-yl)amino)methyl)-5-azaspiro[2.4]heptan-5-yl)methanone]
10 | – | – | – | – | > 10000 nM | Cc1ccc(-c2ncccn2)c(C(=O)N2CC3(CC3)C[C@H]2CNc2ccc(Cl)cn2)c1 [Example 51 of WO2011006960, reference compound]

Second part, the compound before the results:

Row | SMILES | Kb (human OX1 receptors) | Kb (human OX2 receptors; [1]) | pKb OX1 (human OX1 receptors) | pKb OX2 (human OX2 receptors; [2]) | Kb (human OX2 receptors; comparison table with compound of WO2011006960, read-out: pKb OX2 (converted))
11 | O=C(c1cc(Cl)ccc1-c1ncccn1)N1CC2(CC2)C[C@H]1CNc1ccc(C(F)(F)F)cn1 [Compound 1a, (S)-(5-chloro-2-(pyrimidin-2-yl)phenyl)(6-(((5-(trifluoromethyl)pyridin-2-yl)amino)methyl)-5-azaspiro[2.4]heptan-5-yl)methanone] | 7.94 nM | 63.1 nM | – | – | –
12 | O=C(c1cccc2c1OC(F)(F)O2)N1CC2(CC2)C[C@H]1CNc1ccc(C(F)(F)F)cn1 [Compound 1b, (S)-(2,2-difluorobenzo[d][1,3]dioxol-4-yl)(6-(((5-(trifluoromethyl)pyridin-2-yl)amino)methyl)-5-azaspiro[2.4]heptan-5-yl)methanone] | 79.4 nM | 63.1 nM | – | – | –
13 | Cc1cccc(C(=O)N2CC3(CC3)C[C@H]2CNc2ccc(C(F)(F)F)cn2)c1-c1ncccn1 [Compound 1c, (S)-(3-methyl-2-(pyrimidin-2-yl)phenyl)(6-(((5-(trifluoromethyl)pyridin-2-yl)amino)methyl)-5-azaspiro[2.4]heptan-5-yl)methanone] | 12.6 nM | 200 nM | – | – | –
14 | CS(=O)(=O)c1ccc(-c2ccccc2)c(C(=O)N2CC3(CC3)C[C@H]2CNc2ccc(C(F)(F)F)cn2)c1 [Compound 1d, (S)-(4-(methylsulfonyl)-[1,1′-biphenyl]-2-yl)(6-(((5-(trifluoromethyl)pyridin-2-yl)amino)methyl)-5-azaspiro[2.4]heptan-5-yl)methanone] | 200 nM | 79.4 nM | – | – | –
15 | O=C(c1cc(Br)ccc1-c1ncccn1)N1CC2(CC2)C[C@H]1CNc1ccc(C(F)(F)F)cn1 [Compound 1e, (S)-(5-bromo-2-(pyrimidin-2-yl)phenyl)(6-(((5-(trifluoromethyl)pyridin-2-yl)amino)methyl)-5-azaspiro[2.4]heptan-5-yl)methanone] | 3.16 nM | 20 nM | – | – | –
16 | O=C(c1cc(Cl)ccc1-c1ncccn1)N1CC2(CC2)C[C@H]1CNc1cc(C(F)(F)F)ccn1 [Compound 1f, (S)-(5-chloro-2-(pyrimidin-2-yl)phenyl)(6-(((4-(trifluoromethyl)pyridin-2-yl)amino)methyl)-5-azaspiro[2.4]heptan-5-yl)methanone] | 7.94 nM | 12.6 nM | – | – | –
17 | O=C(c1c(F)cccc1-c1ncccn1)N1CC2(CC2)C[C@H]1CNc1ncc(C(F)(F)F)cc1F [Compound 1g, (S)-(6-(((3-fluoro-5-(trifluoromethyl)pyridin-2-yl)amino)methyl)-5-azaspiro[2.4]heptan-5-yl)(2-fluoro-6-(pyrimidin-2-yl)phenyl)methanone] | 1.26 nM | 39.8 nM | – | – | –
18 | O=C(c1c(F)cccc1-c1ncccn1)N1CC2(CC2)C[C@H]1CNc1cc(C(F)(F)F)ccn1 [Compound 1h, (S)-(2-fluoro-6-(pyrimidin-2-yl)phenyl)(6-(((4-(trifluoromethyl)pyridin-2-yl)amino)methyl)-5-azaspiro[2.4]heptan-5-yl)methanone] | 39.8 nM | 12.6 nM | – | – | –
19 | Cc1cc(C(F)(F)F)cc(NC[C@@H]2CC3(CC3)CN2C(=O)c2cc(F)ccc2-c2ncccn2)n1 [Compound 1j, (S)-(5-fluoro-2-(pyrimidin-2-yl)phenyl)(6-(((6-methyl-4-(trifluoromethyl)pyridin-2-yl)amino)methyl)-5-azaspiro[2.4]heptan-5-yl)methanone] | 20 nM | 6.31 nM | – | – | –
20 | O=C(c1cc(F)ccc1-c1ncccn1)N1CC2(CC2)C[C@H]1CNc1cc(C(F)(F)F)ccn1 [Compound 1k, (S)-(5-fluoro-2-(pyrimidin-2-yl)phenyl)(6-(((4-(trifluoromethyl)pyridin-2-yl)amino)methyl)-5-azaspiro[2.4]heptan-5-yl)methanone] | 50.1 nM | 7.94 nM | – | – | –
21 | Cc1ccc(-c2ncccn2)c(C(=O)N2CC3(CC3)C[C@H]2CNc2ncc(C(F)(F)F)cc2F)c1 [Compound 1l, (S)-(6-(((3-fluoro-5-(trifluoromethyl)pyridin-2-yl)amino)methyl)-5-azaspiro[2.4]heptan-5-yl)(5-methyl-2-(pyrimidin-2-yl)phenyl)methanone] | 5.01 nM | 25.1 nM | – | – | –
